In a melting point compilation (Tetko et al.; mined from patent text by program, amines drawn as free bases though some values may be those of a salt) one finds melting point data, which are given here for 87 compounds.

A value given as a limit tells only on which side of the number the result lay.

What is called melting point is the temperature, or range, at which the solid turns liquid. `CCCCCCCCCCOc1cc2oc3c(C(=O)OCC)cccc3c(=O)c2cc1CCC(=O)OCC` gave a melting point of 61 to 63 °C. For the compound `CC(=O)S[C@H]1CNC(=O)C1`, the melting point was 114 to 116 °C.

For `O=c1ccc(C(F)(F)F)cn1Cc1ccc([N+](=O)[O-])cc1`, the melting point fell in the range of 121 to 123 °C. Turning to `CCn1cc[nH]c(=O)c1=O`, the melting point was in the range of 173 to 174 °C. `Cc1c(NC(=O)c2ccc(-c3ccc(F)cc3)c(F)c2)ccc2cc(CN3CCCCCC3)cnc12` showed a melting point of 162 to 163 °C. As for `O=C(O)CCCNC(=O)c1cccc(NC(=O)c2ccccc2O)c1`, the figure is 172 to 174 °C; as for `CC=CCOc1c(I)cc(C(C)O)nc1Cl` (configuration not stated), 61 to 62.5 °C. Consider `CC(C)CN1C(=O)N(C)C2(NC(=O)NC2=O)c2ccccc21` (configuration not stated), for which the melting point turned out to be 270 °C. The figure for `CN(C(N)=O)C1Nc2ccc(Cl)cc2Oc2ccccc21` (configuration not stated) is 146 to 149 °C.

Compound `Cc1cc(NC(=O)C(=O)N(C)C)cc(C)c1S(=O)(=O)C[N+](=O)[O-]` returned a melting point of 171 to 172 °C.

Consider `CCCn1c(=O)c(C=C(C#N)C#N)c2n(c1=O)CCS2`, for which the melting point lay within 135 to 137 °C.

Turning to `Cc1c(NC(=O)c2ccc(OCc3ccc(C(F)(F)F)cc3)cc2)ccc2cc(CN3CCCC3)cnc12`, the melting point lay in the range of 196 to 197 °C.

`NC(=O)c1c(I)cc(I)c(CCC(=O)O)c1I` yielded a melting point of more than 280 °C. In the case of `CNC(=O)NC(=O)C(CC1CCCC1OC1CCCCO1)c1ccc(Cl)c(Cl)c1` (configuration not stated), the melting point lay within 68 to 70 °C. In turn, `CCCOc1cc(F)cc2c1c(CCN(C)C)cn2CC` showed a melting point of 68.9 to 70.1 °C. In turn, `Cn1c(C(O)(C(F)(F)F)C(F)(F)F)cc(-c2ccc(F)cc2)c1-c1ccc(F)cc1` gave a melting point of 130 to 131 °C.

Compound `O=C(CC[N+](=O)[O-])c1ccccc1` registered a melting point of 59 to 62 °C. As to `CC1Cc2cc(C#N)ccc2C1=O` (configuration not stated), the melting point fell in the range of 90 to 91 °C. `C=CC(CC(O)C(CC1CCCCC1)NC(=O)C(Cc1c[nH]cn1)NC(=O)C(CN)(Cc1ccccc1)Cc1ccccc1)C(C)C` (configuration not stated) returned a melting point of 89 °C. `COc1cc(Br)c(OC)c(CC(=O)O)c1` came in with a melting point of 62 to 65 °C. The figure for `Cc1nnc2n1-c1sc(CCc3ccc(Cl)cc3)cc1C(c1ccccc1Cl)=NC2` is 162 to 164 °C.

Compound `CC(=O)NCCc1cn(S(=O)(=O)c2ccc(C)cc2)c2ccc(O)cc12` showed a melting point of 173 to 174 °C. In turn, `CCCC(=O)CC(=O)c1ccc(C2CCC(CC)CC2)cc1` (configuration not stated) displayed a melting point of 99 °C. In turn, `COc1ccc2c(c1)CCC1C2CCC2(C)C(NCCCCCCN)CCC12` (configuration not stated) showed a melting point of 93 to 94 °C.

With `O=C(Cc1ccc2ccccc2n1)NC1CCC2(O)C3Cc4ccc(O)c5c4C2(CCN3CC2CC2)C1O5` (configuration not stated), the melting point was in the range of 212 to 214 °C. In turn, `COC(=O)C(NC(=O)c1ccccc1)c1ccc(-c2ccc(S)cc2)cc1` (configuration not stated) showed a melting point of 150 to 152 °C.

In turn, `CC1(C)[C@@H]2[C@H]1[C@@H](O)O[C@H]2C(Cl)(Cl)Cl` yielded a melting point of 100 to 105 °C. In turn, `COc1ccc(COc2c(C)c(C)c3c(c2C)C(c2ccc(N4CCOCC4)cc2)C(C)(C)O3)cc1` (configuration not stated) registered a melting point of 110 to 112 °C.

For the compound `CNc1nn(C(=O)NC(C)C(C)Cc2ccc(Cl)cc2)c(=O)n1C` (configuration not stated), the melting point was 222 to 224 °C. `COC(=O)c1cc(C(=O)c2c(C)c(OC)c3c(OCc4ccccc4)cccn23)ccc1N` came in with a melting point of 174 °C. Take `O=C(Nc1cccc(Cl)c1C(=O)O)c1ccc(F)cc1`: the melting point is 228 to 233 °C. The figure for `COc1ccc(C(=O)Cc2cc(OC)cc(Br)c2OC)cc1` is 91 to 93 °C; for `Cc1ncnc(C)c1N` it is 98 to 100 °C. For `O=C(Nc1cccc2[nH]ccc12)C1(OCC2CO2)C=C(Cl)C=CC1` (configuration not stated), the melting point was found to be 175 °C. `CCOc1cc2ncc(C#N)c(C)c2cc1OCC` yielded a melting point of 140 to 145 °C. Regarding `O=C(NCCO)c1cccc(-c2cccc3cc(Cc4cccc(C(F)(F)F)c4)oc23)c1`, the melting point lay within 140 to 141 °C. The figure for `CC(C)N1CC2(COc3ccc([N+](=O)[O-])cc3OC2)OC1=O` (configuration not stated) is 140 to 144 °C.

For the compound `CCCN1CCC(=O)C2=C1CSc1ccc(OC)cc12`, the melting point is 108 to 110 °C. Take `COC(=O)c1ccc(CN2C(=O)C3(COc4cc5c(cc43)CCO5)c3ccccc32)cc1` (configuration not stated): the melting point is 136 to 140 °C. `CCCCS(=O)(=O)Nc1ccc(Oc2cccc3cccnc23)cc1` came in with a melting point of 162 °C. The compound `CC(C)(C)c1cc(Cl)c(O)c(C=O)c1` showed a melting point of 75 to 77 °C.

`CC(=O)c1oc2c(sc3ccccc32)c1O` gave a melting point of 196 to 197 °C. The figure for `CC(=O)OC1CSC(Oc2cccc(-c3ccncc3)n2)C(OC(C)=O)C1OC(C)=O` (configuration not stated) is 137 °C; for `N#CNC(=NC1CCN(CCCc2ccccc2)CC1)N1CCc2ccccc2C1` it is 122 to 124 °C. The figure for `Fc1ccc(-c2ncn(C3CCNCC3)c2-c2ccnc(Oc3ccc(Oc4ccccc4)cc3)n2)cc1` is 174 to 175 °C; for `Cn1cc(-c2ccccc2)c(=O)c(-c2cccc(F)c2)c1` it is 134 °C. `O=C(NNC(=O)c1ccc(Oc2ccccc2)cc1)c1ccc(O)cc1` came in with a melting point of 203 to 205 °C.

Compound `COC(=O)c1cc2ccncc2c2sc3ccccc3c12` displayed a melting point of 174 to 176 °C.

`COC(=O)CCC#Cc1nc(Cl)ccc1N` came in with a melting point of 96 to 100 °C. In the case of `CC(C)(C)OC(=O)Nc1ccccc1C1Cc2ccccc2N1C(=O)OC(C)(C)C` (configuration not stated), the melting point lay within 148 to 150 °C. With `CCOC(=O)c1cnn(-c2ccc(F)cc2)c1O`, the melting point is 127 to 128 °C. Regarding `CC[C@H](Cc1sccc1Cl)Nc1ncnc2c1ncn2[C@@H]1C[C@H](CF)[C@@H](O)[C@H]1O`, the melting point came to 143 °C. Take `Cc1cc(C#N)cc(C)c1Oc1nc(Nc2ccc(C#N)cc2)nc(N)c1Br`: the melting point was 271 °C. Consider `Cc1cccc(C)c1NC(=O)NCCCNC(C)C`, for which the melting point was 152 to 154 °C. For `COc1ccc(Cl)cc1-c1c(Sc2ncccn2)c(=O)[nH]c2ccc(C(F)(F)F)cc12`, the melting point lay within 302 to 303 °C. The compound `CCOc1nn(-c2c(Cl)cc(C(F)(F)F)cc2Cl)c(N)c1-c1cccc(C(F)(F)F)c1` had a melting point of 77 to 78 °C. Compound `CS(=O)(=O)OCc1cc(I)cc(I)c1I` showed a melting point of 130 to 133 °C.

`CCOC(=O)C1=C(c2ccc(-n3c(C)nc4cnccc43)cc2)NC(=O)NC1c1ccccc1Cl` (configuration not stated) gave a melting point of more than 300 °C.

As to `Fc1ccc(SC(c2cc(F)ccc2F)c2cc(Cl)ncc2Cl)cc1` (configuration not stated), the melting point is 95 to 97 °C.

Turning to `CN(C)c1cccc(NC(=O)N(C[C@H]2CC[C@H](CN(C(=O)Nc3cccc(N(C)C)c3)C3CCCCCC3)CC2)C2CCCCCC2)c1`, the melting point was in the range of 151 to 156 °C. Compound `COc1cc(Cl)c(NN)c(Cl)c1` gave a melting point of 124 to 125 °C. For `CCOc1nn(Cc2ccc(OCc3ccccc3)cc2)cc1CCC(=O)O`, the melting point is 115 to 116 °C.

`CCCCCCc1oc(C=Cc2ccccc2)nc1CO` showed a melting point of 44 to 45 °C. Turning to `Cc1oc(-c2ccccc2)nc1COc1ccc(Cn2cc(CCC(=O)O)c(-c3ccc(C(F)(F)F)cc3)n2)cc1`, the melting point was 149 to 150 °C.

Regarding `Cc1oc2cc(O)ccc2c(=O)c1C#N`, the melting point is more than 300 °C.

For the compound `Cc1c(C)c2c(c(C)c1O)SC(CCCI)O2` (configuration not stated), the melting point fell in the range of 72 to 75 °C.

The compound `CCOC(=O)C(C)(C)Oc1ccc(CNc2ccc(Cl)cc2)cc1` gave a melting point of 58 to 60 °C. `COc1ccc(-c2sc3c(c2CN(C)Cc2ccccc2)c(=O)c(C(C)O)cn3Cc2ccccc2F)cc1` (configuration not stated) gave a melting point of 183 to 187 °C. As for `N#Cc1cnc2sccc2c1Cl`, the figure is 100 to 103 °C; as for `CCOc1ccc(-n2c(C(C)N(Cc3cccnc3)C(=O)OC(C)(C)C)nc3ccccc3c2=O)cc1` (configuration not stated), 67.5 °C.

With `COc1cc2c3c(Br)cc(OC)c(OC)c3n(S(C)(=O)=O)c2cc1OC`, the melting point lay in the range of 178 to 179 °C. Compound `Cc1cc(-c2c(-c3ccc(S(N)(=O)=O)cc3)cnn(-c3cccc(Cl)c3)c2=O)ccc1F` had a melting point of 187 to 188 °C. Compound `COc1cc(CN(C)Cc2ccccc2)ccc1NC(=O)Nc1cnc(C)cn1` registered a melting point of 142 to 143 °C. With `NC(Cc1cccc2cccc(Br)c12)=NO`, the melting point fell in the range of 123 to 125 °C. In the case of `CC(=O)NC(=O)OC[C@]1(C)S[C@@H]2[C@H](NC(=O)Cc3ccccc3)C(=O)N2[C@H]1C(=O)OCc1ccc([N+](=O)[O-])cc1`, the melting point fell in the range of 83 to 85 °C. Compound `Clc1ccc(-c2onc3c(CBr)cccc23)c(Cl)c1` showed a melting point of 108 to 110 °C.

Compound `Cc1ccc2c(c1)CC(=O)N2c1c(F)cc(F)c(F)c1F` showed a melting point of 172 to 173 °C. The figure for `CC(=O)Nc1ccc(CC(=O)NCCc2ccc3[nH]cc(CC#N)c3c2)cc1` is 188 to 189 °C.

`CCCCCCOC(C)c1ccc(-c2ccc(OCc3ccccc3)cc2)cc1` (single isomer, unassigned; (+)): the melting point is 61 to 63 °C. With `O=C(Nc1ccc(-n2nc(C(F)(F)F)cc2C2CC2)nc1)c1ccc2[nH]nnc2c1`, the melting point was in the range of 236 to 238 °C. In turn, `CC(C)(C)OC(=O)NCC(COS(C)(=O)=O)NC(=O)OC(C)(C)C` (configuration not stated) had a melting point of 94 to 96 °C. The compound `Cc1nc(NC(=O)c2cc(F)cc(F)c2)sc1C(=O)NCc1ccccc1` returned a melting point of 84 to 86 °C.

In turn, `COC(=O)c1ccc(CBr)c(CBr)c1` came in with a melting point of 74 to 75 °C. The compound `C=CCN(C(C)=O)c1cccc(-c2ccnc3c(C#N)cnn23)c1` returned a melting point of 135 to 137 °C. Consider `CCC(C)(Oc1ccc(CC(=O)c2ccc3c(c2)CCC3)cc1)C(=O)O` (configuration not stated), for which the melting point lay within 160 to 161 °C. The figure for `Cc1ccc2c(c1)c(-c1ccccc1)nn2CO` is 109 to 111 °C; for `CCc1nc2c(cnn2CC)c(NC2CCOCC2)c1CNC(=O)c1cccc(C(=O)NCc2ccc(F)c(-c3cccc(CN4CCN(CC)CC4)c3)c2)c1` it is 155 to 158 °C.
